Source: patent EP4603105A1, “PHARMACEUTICAL COMPOSITION CONTAINING CYCLIC COMPOUND HAVING SELECTIVE KRAS INHIBITORY EFFECT AGAINST HRAS AND NRAS” (CHUGAI SEIYAKU KABUSHIKI KAISHA, priority 2022, dated 2024)

How the values were obtained:
HRAS wild-type protein = HRAS wild-type protein (Homo sapiens, UniProt P01112); assay: Binding to HRAS by surface plasmon resonance (SPR), KD and KD ratio to KRAS
How it was run: (§1)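 Biotinylated GDP-bound RAS was captured at about 100–300 RU. Running buffer: HBS pH 7.4, 10 mM MgCl2, 10 µM GDP, 1 mM DTT, 0.01% Tween 20, 4% DMSO.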

[1] = tested on: human bladder cancer strain UM-UC-3; type: cell-based
How it was run: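 UM-UC-3 human bladder cancer cells were seeded at 250 cells/well onto serially diluted compound in MEM with 10% FBS. Viability was read as CellTiter-Glo luminescence.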

[2] = biological target: GDP-bound KRAS wild-type protein (Homo sapiens, UniProt P01116); assay: Binding to KRAS by surface plasmon resonance (SPR), dissociation constant KD
How it was run: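 Each cycle, GDP-bound biotin-Avi RAS was captured (~100–300 RU), compound concentrations were injected low to high for 75 s each at 100 µL/min, then the chip was regenerated. Buffer: HBS pH 7.4, 10 mM MgCl2, 10 µM GDP, 1 mM DTT, 4% DMSO; 30°C. KD from a 1:1 binding model.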

[3] = tested on: human gastric cancer strain GSU; type: cell-based
How it was run: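 Cells seeded at 200 per well in RPMI-1640 with 10% FBS onto serially diluted compound (DMSO) in U-bottom plates. Viability read by CellTiter-Glo luminescence.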

[4] = biological target: GDP-bound NRAS wild-type protein (Homo sapiens, UniProt P01111); assay: Binding to NRAS by surface plasmon resonance (SPR), KD and KD ratio to KRAS
How it was run: as §1

[5] = tested on: human colorectal cancer strain GP2d; type: cell-based
How it was run: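 Cells seeded at 500 cells/well in DMEM with 10% FBS onto serially diluted compound in DMSO, then cultured 7 days at 37°C, 5% CO2. Viability read by CellTiter-Glo luminescence.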

[6] = tested on: human gastric cancer strain SNU-1; type: cell-based
How it was run: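 SNU-1 gastric cancer cells, 250 cells/well in RPMI-1640 with 10% FBS, glucose, HEPES and sodium pyruvate, plated onto serially diluted compound in DMSO.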

[7] = tested on: human pancreatic cancer strain KP4; type: cell-based
How it was run: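 KP4 pancreatic cancer cells seeded at 500 cells/well in DMEM/Ham's F-12 with 10% FBS onto serially diluted compound. Viability read by CellTiter-Glo luminescence.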

[8] = tested on: human ovarian cancer strain OV7; type: cell-based
How it was run: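 OV7 cells, 250 per well, in DMEM/Ham's F-12 with 5% FBS, 0.5 µg/mL hydrocortisone and 10 µg/mL insulin, grown 7 days at 37°C with serially diluted compound. Viability by CellTiter-Glo luminescence.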

[9] = tested on: human lung cancer strain NCI-H441; type: cell-based
How it was run: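 Step one: dispense the test compound in serial DMSO dilutions. Step three: add the reagent and measure […].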

[10] = ratio of KD for HRAS wild-type protein to KD for KRAS
[11] = ratio of KD for GDP-bound NRAS wild-type protein to KD for KRAS

Sequence of GDP-bound KRAS wild-type protein (P01116 1-188 isoform P01116-2): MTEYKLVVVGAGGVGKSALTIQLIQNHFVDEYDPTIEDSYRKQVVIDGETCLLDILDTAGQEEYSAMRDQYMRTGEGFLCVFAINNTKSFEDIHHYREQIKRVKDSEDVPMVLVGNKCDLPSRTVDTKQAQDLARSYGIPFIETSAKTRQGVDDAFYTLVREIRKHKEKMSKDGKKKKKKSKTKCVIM
Sequence of HRAS wild-type protein (P01112 whole entry): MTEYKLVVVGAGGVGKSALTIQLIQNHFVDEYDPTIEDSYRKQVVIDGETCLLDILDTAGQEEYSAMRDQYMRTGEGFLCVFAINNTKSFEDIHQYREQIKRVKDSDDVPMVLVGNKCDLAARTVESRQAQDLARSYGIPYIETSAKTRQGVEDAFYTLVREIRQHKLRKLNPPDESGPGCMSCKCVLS
Sequence of GDP-bound NRAS wild-type protein (P01111 whole entry): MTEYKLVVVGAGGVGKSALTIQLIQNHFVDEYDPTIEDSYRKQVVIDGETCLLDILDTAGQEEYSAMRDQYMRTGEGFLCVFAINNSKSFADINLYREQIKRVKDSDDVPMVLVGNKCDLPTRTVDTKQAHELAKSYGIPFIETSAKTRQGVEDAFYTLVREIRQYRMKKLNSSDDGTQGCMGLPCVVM

Row | IC50 [1] | Kd ([2]; Single Cycle Kinetics, 1:1 binding model) | IC50 [3] | IC50 [5] | IC50 [6] | IC50 [7] | IC50 [8] | IC50 [9] | Kd ([2]; Single Cycle Kinetics) | Kd ([2]; 1:1 binding model) | Structure (SMILES) | HRAS /KRAS (HRAS wild-type protein; ratio of the KD value with respect to HRAS wild-type protein to the KD value with respect to KRAS) | NRAS /KRAS ([4]; ratio of the KD value with respect to GDP-bound NRAS wild-type protein to the KD value with respect to KRAS) | HRAS /KRAS (HRAS wild-type protein; [10]) | NRAS /KRAS [4, 11]
1 | 19.7 nM | 0.45 nM | 0.5 nM | 24.8 nM | 20 nM | 102 nM | 80.2 nM | 25.7 nM | – | – | CCC[C@H]1C(=O)N[C@@H]([C@@H](C)CC)C(=O)N(C)CC(=O)N(C)[C@H]2C/C=C\CCN(C2=O)[C@@H](Cc2ccc(C(F)(F)F)cc2)C(=O)N(C)CC(=O)N[C@@H](CCc2ccc(Cl)c(Cl)c2)C(=O)N2C[C@H](OCC)C[C@H]2C(=O)NC2(CC(C)(C)C2)C(=O)N(C)[C@@H](C(CC)CC)C(=O)N(C)[C@H](C(=O)N(C)C)CC(=O)N1C [PP2175, (2S,8S,12R,14S,20S,23S,27S,30S,36S,38Z)-8-[2-(3,4-dichlorophenyl)ethyl]-12-ethoxy-20-(1-ethylpropyl)-N,N,3',3',4,19,22,26,32,35-decamethyl-30-[(1S)-1-methylpropyl]-3,6,9,15,18,21,25,28,31,34,42-undecaoxo-27-propyl-2-[[4-(trifluoromethyl)phenyl]methyl]spiro[1,4,7,10,16,19,22,26,29,32,35-undecazatricyclo[34.5.1.0^10,14]dotetracont-38-ene-17,1'-cyclobutane]-23-carboxamide] | A (a compound having 10 or more and less than 20 is denoted as A) | AA (a compound having 20 or more is denoted as AA) | – | –
2 | 29 nM | – | 4.3 nM | 13 nM | 19.7 nM | 29.3 nM | 50.9 nM | 11.9 nM | 0.37 nM | – | CCC[C@H]1C(=O)N[C@@H]([C@@H](C)CC)C(=O)N(C)CC(=O)N(C)[C@H]2C/C=C\CCN(C2=O)[C@@H](Cc2ccc(C(F)(F)F)cc2)C(=O)N(C)CC(=O)N[C@@H](CCc2ccc(C(F)(F)F)c(Cl)c2)C(=O)N2CC3(CC3)C[C@H]2C(=O)NC2(CCC2)C(=O)N(C)[C@@H](C(CC)CC)C(=O)N(C)[C@H](C(=O)N(C)C)CC(=O)N1C [PP3414] | – | – | A (a compound having 10 or more and less than 20 is denoted as A) | AA (a compound having 20 or more is denoted as AA)
3 | 1.3 nM | – | 1 nM | 1.5 nM | 4 nM | 4.9 nM | 2.5 nM | 2.3 nM | 0.044 nM | – | CCC[C@H]1C(=O)N[C@@H]([C@@H](C)CC)C(=O)N(C)CC(=O)N(C)[C@H]2C/C=C\CCN(C2=O)[C@@H](Cc2ccc(C(F)(F)F)cc2)C(=O)N(C)CC(=O)N[C@@H](CCc2cc(F)c(C(F)(F)F)c(F)c2)C(=O)N2CC3(CC3)C[C@H]2C(=O)N(C)C2(CCC2)C(=O)N(C)[C@@H](C2CCCC2)C(=O)N(C)[C@H](C(=O)N(C)C)CC(=O)N1C [PP3356] | – | – | A (a compound having 10 or more and less than 20 is denoted as A) | A (a compound having 10 or more and less than 20 is denoted as A)
4 | 2.5 nM | – | 0.4 nM | 2.4 nM | 3.2 nM | 4.7 nM | 7.2 nM | 4.4 nM | – | 0.04 nM | CCO[C@@H]1C[C@H]2C(=O)NC3(CC(C)(C)C3)C(=O)N(C)[C@@H](C3CCCC3)C(=O)N(C)[C@H](C(=O)N(C)C)CC(=O)N(C)[C@@H]([C@@H](C)OC)C(=O)N[C@@H]([C@@H](C)CC)C(=O)N(C)CC(=O)N(C)[C@H]3C/C=C\CCN(C3=O)[C@@H](Cc3ccc(C(F)(F)F)cc3)C(=O)N(C)CC(=O)N[C@@H](CCc3ccc(C(F)(F)F)c(Cl)c3)C(=O)N2C1 [PP3198, (2S,8S,12R,14S,20S,23S,27S,30S,36S,38Z)-8-[2-[3-chloro-4-(trifluoromethyl)phenyl]ethyl]-20-cyclopentyl-12-ethoxy-27-[(1R)-1-methoxyethyl]-N,N,3',3',4,19,22,26,32,35-decamethyl-30-[(1S)-1-methylpropyl]-3,6,9,15,18,21,25,28,31,34,42-undecaoxo-2-[[4-(trifluoromethyl)phenyl]methyl]spiro[1,4,7,10,16,19,22,26,29,32,35-undecazatricyclo[34.5.1.0^10,14]dotetracont-38-ene-17,1'-cyclobutane]-23-carboxamide] | – | – | A (a compound having 10 or more and less than 20 is denoted as A) | A (a compound having 10 or more and less than 20 is denoted as A)
5 | 2.2 nM | – | 0.6 nM | 2.9 nM | 4.3 nM | 6.8 nM | 4.3 nM | 2.4 nM | 0.096 nM | – | CCO[C@@H]1C[C@H]2C(=O)OC3(CCC3)C(=O)N(C)[C@@H](C3CCCC3)C(=O)N(C)[C@H](C(=O)N(C)C)CC(=O)N(C)[C@@H]([C@@H](C)OC)C(=O)N[C@@H]([C@@H](C)CC)C(=O)N(C)CC(=O)N(C)[C@H]3C/C=C\CCN(C3=O)[C@@H](Cc3ccc(C(F)(F)F)cc3)C(=O)N(C)CC(=O)N[C@@H](CCc3ccc(C(F)(F)F)c(OC)c3)C(=O)N2C1 [PP3376, (2S,8S,12R,14S,20S,23S,27S,30S,36S,38Z)-20-cyclopentyl-12-ethoxy-27-[(1R)-1-methoxyethyl]-8-[2-[3-methoxy-4-(trifluoromethyl)phenyl]ethyl]-N,N,4,19,22,26,32,35-octamethyl-30-[(1S)-1-methylpropyl]-3,6,9,15,18,21,25,28,31,34,42-undecaoxo-2-[[4-(trifluoromethyl)phenyl]methyl]spiro[16-oxa-1,4,7,10,19,22,26,29,32,35-decazatricyclo[34.5.1.0^10,14]dotetracont-38-ene-17,1'-cyclobutane]-23-carboxamide] | – | – | A (a compound having 10 or more and less than 20 is denoted as A) | A (a compound having 10 or more and less than 20 is denoted as A)
6 | 1.8 nM | – | 0.4 nM | 2.5 nM | 3.9 nM | 3.9 nM | 4.7 nM | 4.1 nM | 0.1 nM | – | CCO[C@@H]1C[C@H]2C(=O)OC3(CCC3)C(=O)N(C)[C@@H](C3CCCC3)C(=O)N(C)[C@H](C(=O)N(C)C)CC(=O)N(C)[C@@H]([C@@H](C)OC)C(=O)N[C@@H]([C@@H](C)CC)C(=O)N(C)CC(=O)N(C)[C@H]3C/C=C\CCN(C3=O)[C@@H](Cc3ccc(C)cc3)C(=O)N(C)CC(=O)N[C@@H](CCc3ccc(C(F)(F)F)c(OC)c3)C(=O)N2C1 [PP3394, (2S,8S,12R,14S,20S,23S,27S,30S,36S,38Z)-20-cyclopentyl-12-ethoxy-27-[(1R)-1-methoxyethyl]-8-[2-[3-methoxy-4-(trifluoromethyl)phenyl]ethyl]-N,N,4,19,22,26,32,35-octamethyl-30-[(1S)-1-methylpropyl]-3,6,9,15,18,21,25,28,31,34,42-undecaoxo-2-(p-tolylmethyl)spiro[16-oxa-1,4,7,10,19,22,26,29,32,35-decazatricyclo[34.5.1.0^10,14]dotetracont-38-ene-17,1'-cyclobutane]-23-carboxamide] | – | – | A (a compound having 10 or more and less than 20 is denoted as A) | A (a compound having 10 or more and less than 20 is denoted as A)
7 | 0.9 nM | – | 0.6 nM | 1.8 nM | 3.1 nM | 1.9 nM | 4.1 nM | 2.2 nM | 0.027 nM | – | CCO[C@@H]1C[C@H]2C(=O)N(C)C3(CCC3)C(=O)N(C)[C@@H](C3CCCC3)C(=O)N(C)[C@H](C(=O)N(C)C)CC(=O)N(C)[C@@H](CC(C)C)C(=O)N[C@@H]([C@@H](C)CC)C(=O)N(C)CC(=O)N(C)[C@H]3C/C=C\CCN(C3=O)[C@@H](Cc3ccc(C(F)(F)F)cc3)C(=O)N(C)CC(=O)N[C@@H](CCc3cc(F)c(C(F)(F)F)c(F)c3)C(=O)N2C1 [PP3484, (2S,8S,12R,14S,20S,23S,27S,30S,36S,38Z)-20-cyclopentyl-8-[2-[3,5-difluoro-4-(trifluoromethyl)phenyl]ethyl]-12-ethoxy-27-isobutyl-N,N,4,16,19,22,26,32,35-nonamethyl-30-[(1S)-1-methylpropyl]-3,6,9,15,18,21,25,28,31,34,42-undecaoxo-2-[[4-(trifluoromethyl)phenyl]methyl]spiro[1,4,7,10,16,19,22,26,29,32,35-undecazatricyclo[34.5.1.0^10,14]dotetracont-38-ene-17,1'-cyclobutane]-23-carboxamide] | – | – | A (a compound having 10 or more and less than 20 is denoted as A) | A (a compound having 10 or more and less than 20 is denoted as A)
